Source: patent US20260306460A1, “COMPOSITION FOR REMOVING AND INHIBITING SENESCENT CELLS, AND USES THEREOF” (LIFECEUTIX CO., LTD., priority 2023, published 2026)

Legend:
[1] = tested on: obesity-induced aged C57BL6J mice; assay: p16 and p21 mRNA in obesity-aged mice, Example 23-2, Table 42; format: in vivo, mouse; settings: 360 mg/kg oral daily for 21 days, untreated 100%
Method: 15-week-old male C57BL6J mice (The Jackson Laboratory) were induced to obesity by a high-fat diet using the same method as in Example 9-1 WO2023-085787 A1. After acclimation to the experimental environment for one week, the mice were randomly assigned to experimental and control groups. […] LX-3002 was mixed in distilled water with 4% DMSO, 30% PEG300, and 5% Tween80 and administered orally at a concentration of 10 mg/kg daily for 21 days. LX-5701 was mixed in PBS and administered orally at a concentration of 360 mg/kg daily for 21 days. LX-6807 was mixed in saline and administered intraperitoneally at a concentration of 1 mg/kg daily for 21 days. The control group received only the solution in the same volume. After the end of drug administration, the methods described in each example below were performed.
Mice were sacrificed using the same method as in Example 7-2 of WO2023-085787 A1. RNA was extracted from organ tissues from each site, and the synthesized cDNA was used for qRT-PCR (quantitative real-time PCR) analysis. […] The mRNA levels of p16 and p21 after obesity induction were calculated as 100% and compared with the mRNA levels of p16 and p21 after LX-5701 treatment.

[2] = tested on: obesity-induced aged C57BL6J mice; assay: p16, MMP3, IL6 mRNA in groin fat of obese aged mice given senescent cells killed by test compound, Example 16; format: in vivo, mouse; settings: no administration = 100%
From the text: To obtain preadipocytes, groin fat tissue was collected from an 8-week-old female C57BL6J mouse (KRIBB Laboratory Animal Resource Center). The fat tissue was cut into small pieces and treated with collagenase to decompose the fat tissue, then centrifuged to collect the stromal vascular fraction (SVF) containing preadipocytes. It was washed with a washing medium (HBSS, GenDEPOT; 3.5% Albumin Fraction V, GenDEPOT; 100 U/ml Penicillin & Streptomycin, Invitrogen), mixed again, and extracted by filtering through a 100 μm nylon mesh. The isolated preadipocytes were cultured in the designated medium (DMEM, GenDEPOT; 20% FBS, GenDEPOT; 100 U/ml Penicillin & Streptomycin, Invitrogen). In the same manner as Example 1 of WO2023-085787 A1, cells were treated with doxorubicin at a concentration of 250 nM for 24 hours and cultured for an additional 21 days to induce cell senescence. […] By treating the test compound in the same manner as in Example 13, it was confirmed using an optical microscope that the death of most senescent cells was induced. […] Afterwards, the mouse was sacrificed in the same manner as in Example 7-2 of WO2023-085787 A1, total RNA was extracted from the groin fat tissue, and qRT-PCR was performed and analyzed using the synthesized cDNA. […] The mRNA amount of p16, MMP3, and IL6 without administration of senescent cells whose death was induced by the test compound were calculated as 100%, and the amount of p16, MMP3, and IL6 after administration of the senescent cells whose death was induced by the test compound were compared with them. […] The amount of activity evaluation without administration of senescent cells whose death was induced by the test compound was calculated as 100% and compared it with the amount of activity evaluation after administration of senescent cells whose death was induced by the test compound. […]

[3] = tested on: proliferating foreskin cells; assay: Survival of proliferating human cells treated with supernatant (secreted fluid) from death-induced cells, Example 13; format: cell-based; settings: 3 days; for viability at 30 µM: Homo sapiens, 72 h
Method: After 3 days, cell viability was measured using CellTiter-Glo Luminescent Cell Viability Assay (Promega) or light microscopy.
After treating cells with the test compound at a high concentration that induces the death of most cells in both non-senescence-induced and senescence-induced cells, the cells were washed three times with PBS to remove the test compound, and replaced with fresh medium and cultured for an additional 3 hours at the time when the compound has entered into the cell but has not yet induced cell death (approximately 1 to 3 hours after compound treatment). During this additional culture, by checking with an optical microscope, etc., the medium supernatants containing secreted fluid from normally proliferating and senescent cells in which cell death was induced were obtained. The obtained medium supernatant was replaced with the medium of normally proliferating and senescent cells, respectively, and cell survival rate was measured after 3 days.

[4] = senescent preadipocytes killed by test compound sc

O=C1C2CCN(CC2)C1CNC(=O)C(F)(F)F (centres unmarked) [LX-5701]
p16 mRNA, Eye ([1]; Eye): 71%
p21 mRNA, Eye ([1]; Eye): 70%
p16 mRNA, Heart ([1]; Heart): 80%
p21 mRNA, Heart ([1]; Heart): 81%
p16 mRNA, Liver ([1]; Liver): 63%
p21 mRNA, Liver ([1]; Liver): 61%
p16 mRNA, Lung ([1]; Lung): 74%
p21 mRNA, Lung ([1]; Lung): 77%
p16 mRNA, Muscle ([1]; Muscle): 75%
p21 mRNA, Muscle ([1]; Muscle): 64%
p16 mRNA, Skin ([1]; Skin): 77%
p21 mRNA, Skin ([1]; Skin): 68%
p16 mRNA, asWAT ([1]; asWAT): 67%
p21 mRNA, asWAT ([1]; asWAT): 79%
p16 mRNA, eWAT ([1]; eWAT): 65%
p21 mRNA, eWAT ([1]; eWAT): 55%
p16 mRNA, iBAT ([1]; iBAT): 72%
p21 mRNA, iBAT ([1]; iBAT): 80%
p16 mRNA, iWAT ([1]; iWAT): 61%
p21 mRNA, iWAT ([1]; iWAT): 51%

S=C(N/N=C1\CCCc2cccnc21)N1CCN(c2ccccn2)CC1 [LX-801]
IL6 mRNA [2, 4]: 79.4 (±4.6) %
MMP3 mRNA [2, 4]: 81.7 (±2.9) %
p16 mRNA ([2]; senescent preadipocytes killed by test compound, 5×10^5 cells sc): 79.8 (±3.4) %

COC(=O)c1ccc([C@H]2c3[nH]c4ccccc4c3C[C@H](C(=O)OC)N2C(=O)CCl)cc1 [LX-405]
viability at 30 µM ([3]; supernatant from death-induced proliferating cells): 104%
viability at 30 µM ([3]; supernatant from death-induced senescent cells): 100%
Survival ([3]; supernatant from No Cells): 99.4 (±2.4) %
